Laboratory results reported in ChEMBL document CHEMBL4715821, “Discovery of 4-ethoxy-7H-pyrrolo[2,3-d]pyrimidin-2-amines as potent, selective and orally bioavailable LRRK2 inhibitors” (Bioorg Med Chem Lett, 2018).

What was measured:
[1] = biological target: Tyrosine-protein kinase Fyn (Homo sapiens) (UniProt P06241); experiment: Inhibition of wild-type human partial length FYN (T243 to L534 residues) expressed in bacterial expression system assessed as residual activity at 1 uM by Kinomescan method relative to control
[2] = biological target: Activin receptor type-1-like (Homo sapiens) (UniProt P37023); experiment: Inhibition of wild-type human partial length ACVRL1 (L164 to Q503 residues) expressed in bacterial expression system assessed as residual activity at 1 uM by Kinomescan method relative to control
[3] = biological target: Solute carrier organic anion transporter family member 1B1 (Homo sapiens, UniProt Q9Y6L6); experiment: Inhibition of human OATP1B1
[4] = biological target: Mitogen-activated protein kinase kinase kinase kinase 5 (Homo sapiens) (UniProt Q9Y4K4); experiment: Inhibition of wild-type human partial length MAP4K5 (M1 to P297 residues) expressed in bacterial expression system assessed as residual activity at 1 uM by Kinomescan method relative to control
[5] = biological target: Serine/threonine-protein kinase VRK2 (Homo sapiens) (UniProt Q86Y07); experiment: Inhibition of wild-type human partial length VRK2 (M1 to T336 residues) expressed in mammalian expression system assessed as residual activity at 1 uM by Kinomescan method relative to control
[6] = biological target: Protein kinase C alpha type (Homo sapiens) (UniProt P17252); experiment: Inhibition of PKCalpha (unknown origin) assessed as residual activity at 1 uM by Kinomescan method relative to control
[7] = biological target: Macrophage colony-stimulating factor 1 receptor (Homo sapiens) (UniProt P07333); experiment: Inhibition of FMS (unknown origin) assessed as residual activity at 1 uM by Kinomescan method relative to control
[8] = biological target: Activin receptor type-1B (Homo sapiens) (UniProt P36896); experiment: Inhibition of wild-type human ACVR1B (S187 to I505 residues) expressed in bacterial expression system assessed as residual activity at 1 uM by Kinomescan method relative to control
[9] = biological target: Serine/threonine-protein kinase Nek5 (Homo sapiens) (UniProt Q6P3R8); experiment: Inhibition of wild-type human partial length NEK5 (M1 to M279 residues) expressed in bacterial expression system assessed as residual activity at 1 uM by Kinomescan method relative to control
[10] = biological target: Serine/threonine-protein kinase D1 (Homo sapiens) (UniProt Q15139); experiment: Inhibition of wild-type human partial length PRKD1 (G551 to E870 residues) expressed in bacterial expression system assessed as residual activity at 1 uM by Kinomescan method relative to control
[11] = biological target: CDC7/DBF4 (Cell division cycle 7-related protein kinase/Activator of S phase kinase) (Homo sapiens) (UniProt Q9UBU7+O00311); experiment: Inhibition of CDC7/DBF4 (unknown origin) assessed as residual activity at 1 uM by Kinomescan method relative to control; type: protein-complex assay
[12] = biological target: Protein kinase C iota type (Homo sapiens) (UniProt P41743); experiment: Inhibition of PKCiota (unknown origin) assessed as residual activity at 1 uM by Kinomescan method relative to control
[13] = biological target: Focal adhesion kinase 1 (Homo sapiens) (UniProt Q05397); experiment: Inhibition of wild-type human partial length FAK (D402 to R696 residues) expressed in bacterial expression system assessed as residual activity at 1 uM by Kinomescan method relative to control
[14] = biological target: Serine/threonine-protein kinase 3 (Homo sapiens) (UniProt Q13188); experiment: Inhibition of wild-type human partial length MST2 (D17 to E318 residues) expressed in bacterial expression system assessed as residual activity at 1 uM by Kinomescan method relative to control
[15] = biological target: Calcium/calmodulin-dependent protein kinase type 1G (Homo sapiens) (UniProt Q96NX5); experiment: Inhibition of wild-type human partial length CAMK1G (M1 to A342 residues) expressed in bacterial expression system assessed as residual activity at 1 uM by Kinomescan method relative to control
[16] = biological target: Death-associated protein kinase 2 (Homo sapiens) (UniProt Q9UIK4); experiment: Inhibition of wild type human full length DAPK2 (M1 to S370 residues) expressed in bacterial expression system assessed as residual activity at 1 uM by Kinomescan method relative to control
[17] = biological target: Serine/threonine-protein kinase Nek7 (Homo sapiens) (UniProt Q8TDX7); experiment: Inhibition of wild-type human full length NEK7 (M1 to S302 residues) expressed in bacterial expression system assessed as residual activity at 1 uM by Kinomescan method relative to control
[18] = biological target: 3-phosphoinositide-dependent protein kinase 1 (Homo sapiens) (UniProt O15530); experiment: Inhibition of PDK1 (unknown origin) assessed as residual activity at 1 uM by Kinomescan method relative to control
[19] = biological target: Tyrosine-protein kinase Lyn (Homo sapiens) (UniProt P07948); experiment: Inhibition of wild-type human partial length LYN (C219 to Q511 residues) expressed in bacterial expression system assessed as residual activity at 1 uM by Kinomescan method relative to control
[20] = biological target: Serine/threonine-protein kinase PAK 3 (Homo sapiens) (UniProt O75914); experiment: Inhibition of wild-type human full length PAK3 (M1 to R544 residues) expressed in bacterial expression system assessed as residual activity at 1 uM by Kinomescan method relative to control
[21] = biological target: Serine/threonine-protein kinase 26 (Homo sapiens) (UniProt Q9P289); experiment: Inhibition of wild-type human full length MST4 (M1 to P416 residues) expressed in mammalian expression system assessed as residual activity at 1 uM by Kinomescan method relative to control
[22] = biological target: STE20-like serine/threonine-protein kinase (Homo sapiens) (UniProt Q9H2G2); experiment: Inhibition of wild-type human partial length SLK (S14 to A307 residues) expressed in bacterial expression system assessed as residual activity at 1 uM by Kinomescan method relative to control
[23] = biological target: Serine/threonine-protein kinase pim-1 (Homo sapiens) (UniProt P11309); experiment: Inhibition of wild-type human partial length PIM1 (A15 to K313 residues) expressed in bacterial expression system assessed as residual activity at 1 uM by Kinomescan method relative to control
[24] = biological target: Tyrosine-protein kinase HCK (Homo sapiens) (UniProt P08631); experiment: Inhibition of wild-type human full length HCK (M22 to P526 residues) expressed in bacterial expression system assessed as residual activity at 1 uM by Kinomescan method relative to control
[25] = biological target: Cytoplasmic tyrosine-protein kinase BMX (Homo sapiens) (UniProt P51813); experiment: Inhibition of wild-type human full length BMX (M1 to H675 residues) expressed in bacterial expression system assessed as residual activity at 1 uM by Kinomescan method relative to control
[26] = biological target: Cyclin-dependent kinase 4/cyclin D1 (Homo sapiens) (UniProt P11802+P24385); experiment: Inhibition of wild-type human full length CDK4/cyclinD1 (M1 to E303 residues) expressed in mammalian expression system assessed as residual activity at 1 uM by Kinomescan method relative to control
[27] = biological target: Rho-associated protein kinase 2 (Homo sapiens) (UniProt O75116); experiment: Inhibition of wild-type human partial length ROCK2 (M1 to T431 residues) expressed in mammalian expression system assessed as residual activity at 1 uM by Kinomescan method relative to control

Compound `CCOc1nc(Nc2ccc(C(=O)N3CCOCC3)cc2OC)nc2[nH]ccc12` has an Activity [1] of 109%, an Activity [2] of 74% and an IC50 [3] of 12.6 µM. The Activity [4] was 101%, the Activity [5] was 102% and the Activity [6] was 95.5%. It also gave an Activity [7] of 106%, an Activity [8] of 84.5% and an Activity [9] of 94.8%. The Activity [10] was 46.9%, the Activity [11] was 102% and the Activity [12] was 96.5%. For the same compound, the Activity [13] was 39.5%, the Activity [14] was 99.3% and the Activity [15] was 106%. It also gave an Activity [16] of 137%, an Activity [17] of 97.7% and an Activity [18] of 93.1%. The Activity [19] was 99.7%, the Activity [20] was 96.4% and the Activity [21] was 88.4%. The Activity [22] was 109%, the Activity [23] was 99.7% and the Activity [24] was 87.2%. For the same compound, the Activity [25] was 92.5%, the Activity [26] was 97.4% and the Activity [27] was 91.3%.
